Tests used:
[1] = system: Adrenergic, Alpha 2, Non-selective; test: NovaScreen assay; format: binding
[2] = biological target: T1, Glutamate, NMDA, Glycine (Stry-insens Site) (Homo sapiens, UniProt Q05586); test: NovaScreen assay; format: binding; details: read-out: Inhibition, 10 μM XL-647
T1 construct: NovaScreen

[3] = system: Glycine, Strychnine-sensitive; test: NovaScreen assay; format: binding
[4] = biological target: T2, Muscarinic, M1 (Human Recombinant) (Homo sapiens, UniProt P11229); test: NovaScreen assay; format: binding
T2 construct: NovaScreen

[5] = system: Potassium Channel, ATP-Sensitive; test: NovaScreen assay; format: binding
NOS (Neuronal-Binding) = biological target: T3, NOS (Neuronal-Binding) (Homo sapiens, UniProt P29475); test: NovaScreen assay; details: read-out: Inhibition, 10 μM XL-647
T3 construct: NovaScreen

[6] = system: panel of pharmacological targets, including receptors, transporters, and enzymes; test: NovaScreen panel, overall statements; format: binding; details: single in vitro concentration of 10 μM
[7] = biological target: T4, panel of pharmacological targets, including receptors, transporters, and enzymes; test: NovaScreen panel, overall statements; format: binding; details: muscarinic receptors, α2-adrenergic receptor and dopamine transporter
T4 construct: IC50 values; other: muscarinic receptors, α2-adrenergic receptor and dopamine transporter

CDK5 = CDK5 (Homo sapiens, UniProt Q00535); test: In vitro kinase inhibition screen; format: biochemical
Procedure: (§1) Further screening was performed using the biochemical assay methods of Example 2. Additional description of the components and concentrations are summarized in Table 8, Table 9, and Table 10, below.

IKKα = IKKα (Homo sapiens, UniProt O15111); test: In vitro kinase inhibition screen; format: biochemical
Procedure: as §1

Lyn = Lyn (Homo sapiens, UniProt P07948); test: In vitro kinase inhibition screen; format: biochemical
Procedure: as §1

MAPK2 = MAPK2 (Homo sapiens, UniProt P28482); test: In vitro kinase inhibition screen; format: biochemical
Procedure: as §1

PAK2 = PAK2 (Homo sapiens, UniProt Q13177); test: In vitro kinase inhibition screen; format: biochemical
Procedure: as §1

PKCα = PKCα (Homo sapiens, UniProt P17252); test: In vitro kinase inhibition screen; format: biochemical
Procedure: as §1

Rsk2 = Rsk2 (Homo sapiens, UniProt P51812); test: In vitro kinase inhibition screen; format: biochemical
Procedure: as §1

SAPK3 = SAPK3 (Homo sapiens, UniProt P53778); test: In vitro kinase inhibition screen; format: biochemical
Procedure: as §1

c-Raf = c-Raf (Homo sapiens, UniProt P04049); test: In vitro kinase inhibition screen; format: biochemical
Procedure: as §1

[8] = system: MDA-MB-231 human tumor xenograft; test: MDA-MB-231 xenograft, tumor growth; format: in vivo; details: Mus musculus
Procedure: Before treatment, H1975, A431, or MDA-MB-231 cells were harvested from exponentially growing cultures, detached by brief trypsinization, washed twice in cold HBSS, resuspended in ice-cold HBSS, and implanted either s.c. (H1975, 3×10^6 cells per mouse) or i.d. (A431, 1×10^6 cells per mouse) into the dorsal hind flank or s.c. into the mammary fat pad (MDA-MB-231, 1×10^6 cells per mouse). Palpable tumors were measured by caliper twice weekly until the mean tumor weight was in the range of ˜80 to 120 mg. Tumor weight was determined by measuring perpendicular diameters with a caliper and multiplying the measurements of diameters in two dimensions: tumor volume (mm^3)/2=length (mm)×width (mm^2)/2. […] The mean tumor weight of each animal in the respective control and treatment groups was determined twice weekly during the dosing periods. […]
The response of tumors to treatment was determined by comparing the mean tumor weight of the treatment group with the appropriate control group. Percentage inhibition of tumor growth was determined with the following formula: Percentage inhibition=100×[1−(Xf−Xo)/(Yf−Yo)], where Xf and Yf are the mean tumor weights of the treatment and control groups, respectively, on day f, and Xo and Yo are the mean tumor weights of treatment and control groups respectively, on day zero (staged tumor weights after grouping)

[9] = mouse, in vivo, 100 mg/kg/day
Procedure: Throughout the dosing period, tumor size was measured twice weekly (where applicable), and body weight was measured daily. […] Tumors were excised at the termination of some studies and examined histologically for microvascular density (CD31 staining), proliferating cells (Ki67 staining), and necrosis (hematoxylin/eosin staining).
Tolerability was monitored in these studies by daily measurement of body weight.

[10] = system: subjects with advanced solid tumors; test: Clinical Study XL-647-002 (Phase 1, daily dosing)

T2 sequence (P11229 whole entry): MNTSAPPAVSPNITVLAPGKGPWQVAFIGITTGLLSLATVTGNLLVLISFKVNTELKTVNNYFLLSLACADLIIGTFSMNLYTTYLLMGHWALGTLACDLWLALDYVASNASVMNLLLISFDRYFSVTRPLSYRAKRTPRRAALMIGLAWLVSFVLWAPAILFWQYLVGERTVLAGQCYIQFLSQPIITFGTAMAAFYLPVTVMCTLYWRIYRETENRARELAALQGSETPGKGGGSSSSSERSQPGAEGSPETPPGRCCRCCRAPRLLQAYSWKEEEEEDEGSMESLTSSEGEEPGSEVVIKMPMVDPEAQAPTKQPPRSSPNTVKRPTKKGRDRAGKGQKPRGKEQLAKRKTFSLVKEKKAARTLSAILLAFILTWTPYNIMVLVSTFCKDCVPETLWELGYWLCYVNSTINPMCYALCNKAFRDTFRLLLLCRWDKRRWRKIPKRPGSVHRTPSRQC
Sequence of PAK2 (Q13177 whole entry, species assumed): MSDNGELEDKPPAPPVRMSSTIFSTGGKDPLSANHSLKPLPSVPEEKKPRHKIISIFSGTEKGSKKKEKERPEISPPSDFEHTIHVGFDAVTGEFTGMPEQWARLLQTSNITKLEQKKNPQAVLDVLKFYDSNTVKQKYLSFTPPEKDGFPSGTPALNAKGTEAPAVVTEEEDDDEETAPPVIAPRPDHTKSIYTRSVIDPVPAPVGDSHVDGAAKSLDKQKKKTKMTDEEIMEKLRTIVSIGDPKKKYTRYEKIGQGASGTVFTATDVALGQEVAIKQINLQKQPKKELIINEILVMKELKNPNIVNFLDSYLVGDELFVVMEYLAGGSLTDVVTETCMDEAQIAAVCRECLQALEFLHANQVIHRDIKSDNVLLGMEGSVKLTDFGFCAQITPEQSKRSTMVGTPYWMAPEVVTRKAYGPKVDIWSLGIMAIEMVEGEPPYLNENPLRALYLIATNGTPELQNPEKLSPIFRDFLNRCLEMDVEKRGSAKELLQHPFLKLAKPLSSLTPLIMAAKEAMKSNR
Sequence of c-Raf (P04049 whole entry, species assumed): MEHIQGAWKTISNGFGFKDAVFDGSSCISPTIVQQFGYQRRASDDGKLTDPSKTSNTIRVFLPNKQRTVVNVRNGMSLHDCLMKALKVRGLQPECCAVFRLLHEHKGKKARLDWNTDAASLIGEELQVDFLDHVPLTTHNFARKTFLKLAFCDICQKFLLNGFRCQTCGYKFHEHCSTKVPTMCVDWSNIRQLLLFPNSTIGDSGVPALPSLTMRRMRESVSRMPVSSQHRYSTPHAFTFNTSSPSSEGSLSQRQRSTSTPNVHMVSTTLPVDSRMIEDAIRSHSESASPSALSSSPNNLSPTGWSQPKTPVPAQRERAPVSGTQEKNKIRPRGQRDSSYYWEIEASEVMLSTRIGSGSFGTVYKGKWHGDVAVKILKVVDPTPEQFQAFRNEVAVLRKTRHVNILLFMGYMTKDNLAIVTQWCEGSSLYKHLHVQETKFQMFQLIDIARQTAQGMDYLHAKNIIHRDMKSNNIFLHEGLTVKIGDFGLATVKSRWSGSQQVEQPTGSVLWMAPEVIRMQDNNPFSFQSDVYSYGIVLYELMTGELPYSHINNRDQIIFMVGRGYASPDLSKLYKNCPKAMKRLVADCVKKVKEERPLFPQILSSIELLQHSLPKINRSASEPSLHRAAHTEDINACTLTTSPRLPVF
Sequence of IKKα (O15111 whole entry, species assumed): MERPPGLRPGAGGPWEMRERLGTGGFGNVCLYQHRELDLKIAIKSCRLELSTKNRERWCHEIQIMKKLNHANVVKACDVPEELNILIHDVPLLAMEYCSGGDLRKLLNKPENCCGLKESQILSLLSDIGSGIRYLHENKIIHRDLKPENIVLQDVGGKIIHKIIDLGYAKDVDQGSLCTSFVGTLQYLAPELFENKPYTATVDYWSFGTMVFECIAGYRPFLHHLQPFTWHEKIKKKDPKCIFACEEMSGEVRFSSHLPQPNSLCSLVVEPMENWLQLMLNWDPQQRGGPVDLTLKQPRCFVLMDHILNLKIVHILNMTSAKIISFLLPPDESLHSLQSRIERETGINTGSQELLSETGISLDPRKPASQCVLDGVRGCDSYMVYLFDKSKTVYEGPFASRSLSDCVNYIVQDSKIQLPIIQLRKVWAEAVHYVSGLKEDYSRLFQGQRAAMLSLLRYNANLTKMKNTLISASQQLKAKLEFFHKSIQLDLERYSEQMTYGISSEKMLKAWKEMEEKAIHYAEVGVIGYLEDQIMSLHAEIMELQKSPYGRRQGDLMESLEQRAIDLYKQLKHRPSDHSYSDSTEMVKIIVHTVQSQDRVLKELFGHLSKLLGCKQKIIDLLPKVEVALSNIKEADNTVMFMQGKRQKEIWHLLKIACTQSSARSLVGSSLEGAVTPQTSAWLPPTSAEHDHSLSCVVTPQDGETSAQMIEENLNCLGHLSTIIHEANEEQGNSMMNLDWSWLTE
Sequence of MAPK2 (P28482 whole entry): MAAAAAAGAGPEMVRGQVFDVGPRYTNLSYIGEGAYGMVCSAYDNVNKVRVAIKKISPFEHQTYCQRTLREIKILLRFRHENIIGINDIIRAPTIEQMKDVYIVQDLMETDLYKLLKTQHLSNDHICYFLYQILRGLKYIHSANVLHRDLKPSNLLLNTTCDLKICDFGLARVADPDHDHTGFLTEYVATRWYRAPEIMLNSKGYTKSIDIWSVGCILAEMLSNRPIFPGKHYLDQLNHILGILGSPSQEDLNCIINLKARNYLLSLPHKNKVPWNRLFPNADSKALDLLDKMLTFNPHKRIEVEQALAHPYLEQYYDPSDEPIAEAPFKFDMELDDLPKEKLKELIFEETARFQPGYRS
Sequence of SAPK3 (P53778 whole entry, species assumed): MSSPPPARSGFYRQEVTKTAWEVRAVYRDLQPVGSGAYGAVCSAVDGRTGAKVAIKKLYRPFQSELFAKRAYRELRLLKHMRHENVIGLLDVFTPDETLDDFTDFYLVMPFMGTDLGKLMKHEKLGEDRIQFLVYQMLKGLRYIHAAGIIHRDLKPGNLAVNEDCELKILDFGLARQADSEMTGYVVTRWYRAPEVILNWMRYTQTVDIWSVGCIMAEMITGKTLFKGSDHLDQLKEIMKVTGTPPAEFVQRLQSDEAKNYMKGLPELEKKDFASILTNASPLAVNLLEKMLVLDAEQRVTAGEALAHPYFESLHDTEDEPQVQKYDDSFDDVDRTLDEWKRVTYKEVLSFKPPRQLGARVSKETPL
Sequence of Rsk2 (P51812 whole entry, species assumed): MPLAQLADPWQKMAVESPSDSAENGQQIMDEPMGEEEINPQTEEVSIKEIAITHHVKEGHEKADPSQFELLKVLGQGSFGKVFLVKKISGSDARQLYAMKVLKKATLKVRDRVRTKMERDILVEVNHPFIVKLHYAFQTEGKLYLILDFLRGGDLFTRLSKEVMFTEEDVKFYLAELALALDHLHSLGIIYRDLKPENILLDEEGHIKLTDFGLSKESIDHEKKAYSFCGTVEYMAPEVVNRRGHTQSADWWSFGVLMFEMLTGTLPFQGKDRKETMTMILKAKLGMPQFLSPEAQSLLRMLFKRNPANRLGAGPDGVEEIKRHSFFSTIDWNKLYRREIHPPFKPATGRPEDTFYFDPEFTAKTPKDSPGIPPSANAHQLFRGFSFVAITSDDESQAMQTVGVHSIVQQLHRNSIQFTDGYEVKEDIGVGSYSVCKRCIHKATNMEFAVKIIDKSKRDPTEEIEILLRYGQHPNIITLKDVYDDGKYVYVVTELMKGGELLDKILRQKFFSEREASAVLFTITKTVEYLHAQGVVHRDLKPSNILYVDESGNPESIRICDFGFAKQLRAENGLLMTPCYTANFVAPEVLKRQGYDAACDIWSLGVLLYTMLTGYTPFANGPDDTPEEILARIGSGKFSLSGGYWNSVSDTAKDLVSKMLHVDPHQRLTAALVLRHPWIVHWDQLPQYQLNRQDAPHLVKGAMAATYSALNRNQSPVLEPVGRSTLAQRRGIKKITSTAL

## COc1cc2c(Nc3ccc(Cl)c(Cl)c3F)ncnc2cc1OC[C@@H]1C[C@@H]2CN(C)C[C@@H]2C1 [XL-647, N-(3,4-dichloro-2-fluorophenyl)-7-({[(3aR,5r,6aS)-2-methyloctahydrocyclopenta[c]pyrrol-5-yl]methyl}oxy)-6-(methyloxy)quinazolin-4-amine]
[1]
  IC50: 1800 nM
[1]; 10 μM
  Inhibition, 10 μM XL-647: 84.56%
[2]
  inhibition at 10 µM: 6.46%
[3]
  Inhibition, 10 μM XL-647: 12.95%
[4]
  IC50: 2330 nM
[4]; read-out: Inhibition, 10 μM XL-647
  inhibition at 10 µM: 98.1%
[5]
  Inhibition, 10 μM XL-647: 5.02%
NOS (Neuronal-Binding)
  inhibition at 10 µM: 16.8%
[6]
  interaction with the panel, in words: interact with very few of the pharmacological targets
[7]
  IC50: 1000 to 2700 nM
CDK5
  IC50: > 1000 nM
IKKα
  IC50: > 1000 nM
Lyn
  IC50: 2 nM
MAPK2
  IC50: > 1000 nM
PAK2
  IC50: > 1000 nM
PKCα
  IC50: > 10000 nM
Rsk2
  IC50: > 1000 nM
SAPK3
  IC50: > 1000 nM
c-Raf
  IC50: > 1000 nM
[8]; MDA-MB-231, qd × 14
  ED50: 21.9 mg/kg
[8]; MDA-MB-231, qd × 28
  ED50: 22.9 mg/kg
[9]
  tolerability, in words: generally well-tolerated in mice without substantial body weight loss
[10]; human, in vivo
  subjects with SD lasting greater than 3 months: 16 subjects
[10]; single oral dose daily
  MTD: 300 mg

Source: US9364479B2, “Use of a receptor-type kinase modulator for treating polycystic kidney disease” (SYMPHONY EVOLUTION, INC., priority 2010, dated 2016)
